The values below come from PubChem BioAssay (NCI).

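Briefly, cells in 96-well plates were exposed to five compound concentrations for 48 h, and endpoints were estimated by linear interpolation. Here, GI50 denotes the concentration required for 50% inhibition of growth. TGI is the concentration that stops growth completely.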

Holding throughout (test): inhibition of tumour cell growth, NCI panel, 48 h
Experiment [1] relates to HOP-62 NSCLC.
Experiment [2] relates to K-562 leukemia.
Experiment [3] has as its system BT-549 breast.
In experiment [4] the test system is OVCAR-4 ovarian.
Experiment [5] concerns LOX IMVI melanoma.
Experiment [6] relates to SW-620 colon.
Experiment [7] relates to SF-539 CNS.
The subject of experiment [8] is T-47D breast.
Experiment [9] relates to IGROV1 ovarian.
In experiment [10] the test system is A498 renal.

On to `COc1cc(/C=C2\C(=O)Nc3ccc(F)cc32)cc(OC)c1OC`, for which the GI50 in [1] was 35.8 µM; in experiment [2] it was 5.67 µM; in [3], 22.7 µM; in experiment [4], 60 µM; in experiment [5] it was 20.5 µM; in [6], 63.7 µM. For the same compound, the GI50 in experiment [7] was greater than 100 µM; in experiment [8], 7.2 µM; in experiment [9] it was 8.44 µM; in experiment [10], 54 µM. The TGI in experiment [1], in [2], in [3], in experiment [4], in [5] and in experiment [6] was greater than 100 µM throughout. In addition, the TGI in experiment [7], in experiment [8], in [9] and in experiment [10] was greater than 100 µM throughout.

For `O=C1/C(=C\c2cccn2Cc2ccccc2)c2ccccc2N1c1c(Cl)cccc1Cl`, the GI50 in experiment [1] is greater than 100 µM; in [2] it was greater than 100 µM; in experiment [3], greater than 100 µM; in [4] it was 0.196 µM; in [5], greater than 100 µM; in experiment [6] it was greater than 100 µM. Besides, the GI50 in experiment [7] was greater than 100 µM; in experiment [8], 0.266 µM; in experiment [9] it was 0.551 µM; in [10], greater than 100 µM. Further, the TGI is greater than 100 µM in experiment [1]; greater than 100 µM in experiment [2]; greater than 100 µM in experiment [3]; greater than 60.4 µM in experiment [4]; greater than 100 µM in experiment [5]; greater than 100 µM in experiment [6]. Also, the TGI in [7] was greater than 100 µM; in experiment [8] it was 1.93 µM; in experiment [9], greater than 100 µM; in experiment [10], greater than 100 µM.

With `Nc1nc(Nc2ccccc2)c2ncn(Cc3cc4c(cc3Br)OCO4)c2n1`, the GI50 in [1] was 0.0675 µM; in [2] it was 0.0415 µM; in experiment [3], 0.0511 µM; in experiment [4] it was 0.326 µM; in [5], 0.0563 µM; in [6] it was 0.0471 µM. Besides, the GI50 in [7] was 0.0394 µM; in experiment [8] it was less than 0.01 µM; in experiment [9], 0.105 µM; in experiment [10], 0.0546 µM. Moreover, the TGI in [1] was 7.65 µM; in experiment [2], greater than 39.9 µM; in [3], 2.33 µM; in [4], 55.1 µM; in [5] it was greater than 100 µM; in experiment [6], greater than 100 µM. Besides, the TGI in experiment [7] was determined as 0.51 µM; in [8], 21.4 µM; in experiment [9], 60.4 µM; in experiment [10], 29.7 µM.

Regarding `Cc1n(Cc2ccc3ccccc3c2)cc[n+]1Cc1ccc2ccccc2c1`, the GI50 was 1.6 µM in experiment [1]; 0.478 µM in experiment [2]; 0.929 µM in [3]; 0.381 µM in experiment [4]; 0.951 µM in experiment [5]; 1.77 µM in experiment [6]. In addition, the GI50 in experiment [7] was 1.37 µM; in experiment [8] it was 0.438 µM; in [9], 0.797 µM; in [10], 0.47 µM. For the same compound, the TGI in [1] came to 8.35 µM; in experiment [2], 4.51 µM; in [3], 3.01 µM; in experiment [4], 6.36 µM; in experiment [5], 2.2 µM; in [6] it was 11.7 µM. For the same compound, the TGI in [7] was 7.14 µM; in experiment [8], 5.12 µM; in [9] it was 2.87 µM; in experiment [10] it was 4.61 µM.

On to `Cc1ccc(Nc2nc(N)c(C(=O)c3ccc(C#N)cc3)s2)cc1`, for which the GI50 in [1] was 0.503 µM; in [2], 0.0685 µM; in experiment [3] it was 0.475 µM; in [4], 3.86 µM; in experiment [5], 0.522 µM; in experiment [6], 0.336 µM. For the same compound, the GI50 in [7] was 0.312 µM; in experiment [8] it was 0.384 µM; in experiment [9] it was 1.2 µM; in [10], 0.37 µM. Further, the TGI in experiment [1] was greater than 70.3 µM; in experiment [2] it was greater than 100 µM; in experiment [3], greater than 60.9 µM; in [4], greater than 68.4 µM; in experiment [5], greater than 100 µM; in experiment [6], greater than 100 µM. In addition, the TGI in experiment [7] was 2.85 µM; in experiment [8], greater than 100 µM; in experiment [9], greater than 100 µM; in [10], 23.1 µM.
